Tested on: CD8+ T cells in PBMCs of COVID-19 patients
Assay type: cell-based, human

## YFQPRTFLL [YLQ mutant]
  wild type tetramer-positive CD8+ T cells after expansion with mutant versus wild type peptide (in words): reduced numbers of YLQ tetramer positive cells
